The NIST ThermoML archive (doi:10.1016/j.fluid.2013.12.002)
Numbers after ± are expanded uncertainties.

Conditions: Liquid, Ebulliometric method (Recirculating still)

O=CC=Cc1ccccc1 [(E)-3-phenyl-2-propanal]
vapor or sublimation pressure (442.84 K): 10 ± 0.15 kPa | vapor or sublimation pressure (463.15 K): 20 ± 0.33 kPa | vapor or sublimation pressure (475.83 K): 30 ± 0.49 kPa

O=Cc1ccccc1 [benzaldehyde]
vapor or sublimation pressure (377.63 K): 10 ± 0.15 kPa | vapor or sublimation pressure (396.65 K): 20 ± 0.31 kPa | vapor or sublimation pressure (408.67 K): 30 ± 0.45 kPa

c1ccccc1 [benzene]
vapor or sublimation pressure (353.26 K): 101.33 ± 1.4 kPa

Cc1ccccc1 [toluene]
vapor or sublimation pressure (383.81 K): 101.33 ± 1.4 kPa
